Measurements published in patent US12173088B2, “Anti-microbial peptides” (priority 2018, dated 2024).
In brackets after ≈: the same amount, converted by molar mass. Where two headings read alike, the source gives them in different places. Peptide text beside a SMILES is read from it.

Legend:
[1] = tested on: human red blood cells (hRBCs); test: Hemolytic assay; format: cell-based
Description: Briefly, human red blood cells (hRBCs) were washed three times with phosphate buffer saline (PBS) and diluted to a 2% solution (v/v). After peptide treatment, incubation at 37° C. for one hour, and centrifugation at 5000 rpm for 10 minutes, aliquots of the supernatant were carefully transferred to a fresh 96-well microplate. The amount of hemoglobin released was measured at 545 nm. The percent lysis was calculated by assuming 100% release when human blood cells were treated with 2% Triton™ X-100, and 0% release when incubated with PBS buffer. The peptide concentration that caused 50% lysis of hRBCs is defined as HL50. The cell selectivity index (CSI) was calculated as the ratio between HL50 and MIC of the corresponding peptide against a select pathogenic species.
Hemolytic assays of peptides were performed as described (Mishra, et al. (2017) Acta Biomater., 49:316-328). Briefly, human red blood cells (hRBCs) obtained from UNMC Blood Bank. The blood washed 3× with isotonic saline (0.9% NaCl) and diluted to 2% blood cells (v/v). Peptide horine and verine at various concentrations were added into the 2% blood cells and incubated at 37° C. for 1 hour. Post incubation the plates were spun at 2000 rpm for 10 minutes, aliquots of the supernatant were carefully transferred to a fresh 96-well microplate. The amount of cells lysed is proportional to the hemoglobin released and measured at 545 nm using a ChroMate® microplate reader. The percent lysis was calculated by assuming 100% release when human blood cells were treated with 1% Triton™ X-100, and 0% release when incubated with PBS. The peptide concentration that caused 50% lysis of hRBCs is defined as HL50.

P. aeruginosa PAO1 = format: cell-based, Pseudomonas aeruginosa
Description: (§1) The antibacterial activity of peptides was evaluated using a standard broth microdilution protocol with minor modifications as described (Mishra, et al. (2012) J. Am. Chem. Soc., 134:12426-12429). In brief, logarithmic phase bacterial cultures (i.e., optical density at 600 nm≈0.5) were diluted to OD600 0.001 and partitioned into a 96-well polystyrene microplate at 90 μL per well. After treatment with 10 μL of peptide solutions two fold diluted to various concentrations, microplates were incubated at 37° C. overnight and read on a ChroMate® 4300 Microplate Reader at 630 nm (GMI, Ramsey, MN). […] To study the influence of medium conditions on the antimicrobial activity of peptides against S. aureus USA300, up to 200 mM sodium chloride (NaCl), 2 mM of calcium chloride, 5-10% of human serum, mouse plasma, fluid, or supernatants of tissue homogenates were included into the assays.
(§2) The bacterial strains used include the Gram-positive bacteria methicillin-resistant Staphylococcus aureus USA300, Enterococcus faecium V286-17 (VRE), S. aureus M838-17 (MRSA) and Gram-negative bacteria E. coli E423-17, E416-7 (ampC), P. aeruginosa E411-17, PA01, K. pneumoniae E406-17, ATCC13883, and A. baumannii B26-16. Bacteria were cultivated in tryptic soy broth (TSB) from BD Bioscience.
(§3) The antibacterial activity of peptides was evaluated using a standard broth microdilution protocol with minor modifications (Mishra, et al. (2017) Acta Biomater., 49:316-328). In brief, logarithmic phase bacterial cultures (i.e., optical density at 600 nm≈0.5) were diluted to 0.001 OD and aliquoted 90 μL per well into a 96-well polystyrene microplate. Added 10 μL peptides per well with various concentrations, plates were incubated at 37° C., overnight. Post incubation the plates are read at 630 nm using a ChroMate® Microplate Reader (GMI). […] To study the influence of medium conditions on the antimicrobial activity of peptides against S. aureus USA300 at different pHs (6.8, 7.2, and 8.0), 150 mM sodium chloride (NaCl), 5-10% of human serum, mouse plasma, and peritoneal fluid were included into the assays.

K. pneumoniae ATCC 13883 = format: cell-based, Klebsiella pneumoniae; details: ATCC 13883
Description: as §1, §2, §3

E. coli ATCC 25922 = format: cell-based, Escherichia coli
Description: as §1, §3

S. aureus USA300 = test: microbe, parasite or virus in culture; format: cell-based, Staphylococcus aureus
Description: The bacterial strains used include the Gram-positive strains Staphylococcus aureus USA300 LAC, S. epidermidis 1457, and Bacillus subtilis 168, as well as the Gram-negative isolates Escherichia coli K12 and Acinetobacter baumannii B2367-12. Additional, drug resistance strains include Gram-positive Enterococcus faecium V286-17 (VRE) and S. aureus M838-17 (MRSA) and Gram-negative E. coli E423-17, E. coli E416-17 (ampC), and P. aeruginosa E411-17. Bacteria were cultivated in tryptic soy broth (TSB) (BD Bioscience, MD).
as §1, §2, §3

Row | MIC P. aeruginosa PAO1 (P. aeruginosa PAO1; PAO1) [µM] | MIC K. pneumonia ATCC 13883 (K. pneumoniae ATCC 13883) [µM] | MIC E. coli ATCC 25922 (E. coli ATCC 25922; ATCC 25922) [µM] | MIC S. aureus USA 300 (S. aureus USA300; USA300) [µM] | MIC K. pneumoniae ATCC 13883 (K. pneumoniae ATCC 13883) [µM] | SMILES | HL50 [1] [µM] | also measured
1 | 12.5 (≈ 15.9 µg/mL) | >25 |  |  |  | CC[C@H](C)[C@H](NC(=O)[C@H](CCCNC(=N)N)NC(=O)[C@H](CCCNC(=N)N)NC(=O)[C@H](CC(C)C)NC(=O)[C@H](CCCNC(=N)N)NC(=O)[C@H](Cc1c[nH]c2ccccc12)NC(=O)[C@@H](N)Cc1c[nH]c2ccccc12)C(=O)N[C@@H](Cc1c[nH]c2ccccc12)C(N)=O [WW302, WWRLRRIW] (H-WWRLRRIW-NH2; N-terminus and C-terminus assumed) | >200 | 
2 |  |  | 12.5 to 25 | 3.1 to 6.2 | 25 (≈ 31.8 µg/mL) | CC[C@H](C)[C@H](NC(=O)[C@H](CCCCN)NC(=O)[C@H](CCCNC(=N)N)NC(=O)[C@H](CC(C)C)NC(=O)[C@@H](N)Cc1c[nH]c2ccccc12)C(=O)N[C@@H](Cc1c[nH]c2ccccc12)C(=O)N[C@@H](Cc1c[nH]c2ccccc12)C(=O)N[C@@H](Cc1c[nH]c2ccccc12)C(=O)O [WW293, WLRKIWWW] (H-WLRKIWWW-OH; N-terminus and C-terminus assumed) |  | 
3 |  |  | 25 (≈ 31.8 µg/mL) | 6.2 (≈ 7.9 µg/mL) | >50 | CC[C@H](C)[C@H](NC(=O)[C@H](CCCCN)NC(=O)[C@H](CCCNC(=N)N)NC(=O)[C@H](CC(C)C)NC(=O)[C@H](Cc1c[nH]c2ccccc12)NC(=O)[C@@H](N)Cc1c[nH]c2ccccc12)C(=O)N[C@@H](Cc1c[nH]c2ccccc12)C(=O)N[C@@H](Cc1c[nH]c2ccccc12)C(=O)O [WW292, WWLRKIWW] (H-WWLRKIWW-OH; N-terminus and C-terminus assumed) |  | 
4 | 12.5 (≈ 15.9 µg/mL) | >50 |  |  |  | CC[C@H](C)[C@H](NC(=O)[C@H](CCCNC(=N)N)NC(=O)[C@H](CCCNC(=N)N)NC(=O)[C@H](CC(C)C)NC(=O)[C@H](Cc1c[nH]c2ccccc12)NC(=O)[C@H](Cc1c[nH]c2ccccc12)NC(=O)[C@@H](N)CCCNC(=N)N)C(=O)N[C@@H](Cc1c[nH]c2ccccc12)C(N)=O [WW300, RWWLRRIW] (H-RWWLRRIW-NH2; N-terminus and C-terminus assumed) | >200 | 
5 |  |  | 12.5 (≈ 15.9 µg/mL) | 3.1 to 6.2 | 6.2 to 12.5 | CC[C@H](C)[C@H](NC(=O)[C@H](CCCCN)NC(=O)[C@H](CCCNC(=N)N)NC(=O)[C@@H](N)CC(C)C)C(=O)N[C@@H](Cc1c[nH]c2ccccc12)C(=O)N[C@@H](Cc1c[nH]c2ccccc12)C(=O)N[C@@H](Cc1c[nH]c2ccccc12)C(=O)N[C@@H](Cc1c[nH]c2ccccc12)C(=O)O [WW294, LRKIWWWW] (H-LRKIWWWW-OH; N-terminus and C-terminus assumed) |  | 
6 | >25 |  | >25 | >25 |  | CC(C)C[C@H](NC(=O)[C@H](CC(C)C)NC(=O)[C@H](CCCCN)NC(=O)CNC(=O)[C@H](C)NC(=O)[C@H](C)NC(=O)[C@H](CCCCN)NC(=O)[C@H](C)NC(=O)[C@H](C)NC(=O)[C@H](CO)NC(=O)[C@H](CC(C)C)NC(=O)[C@H](CC(C)C)NC(=O)CN)C(N)=O [DFT522, GLLSAAKAAGKLL] (H-GLLSAAKAAGKLL-NH2; N-terminus assumed) | 50 | Antimicrobial activity (S. aureus USA300; at 25 μM): inactive
7 | >50 | 25 (≈ 32.5 µg/mL) |  |  |  | CC[C@H](C)[C@H](NC(=O)[C@H](CCCNC(=N)N)NC(=O)[C@H](CCCNC(=N)N)NC(=O)[C@H](CC(C)C)NC(=O)[C@H](Cc1c[nH]c2ccccc12)NC(=O)[C@H](Cc1c[nH]c2ccccc12)NC(=O)[C@@H](N)Cc1c[nH]c2ccccc12)C(=O)N[C@@H](Cc1c[nH]c2ccccc12)C(N)=O [WW299, WWWLRRIW] (H-WWWLRRIW-NH2; N-terminus and C-terminus assumed) | 35 | 
8 | 25 to 50 | >25 |  |  |  | CC[C@H](C)[C@H](NC(=O)[C@H](CCCNC(=N)N)NC(=O)[C@H](CCCNC(=N)N)NC(=O)[C@H](CCCNC(=N)N)NC(=O)[C@H](Cc1c[nH]c2ccccc12)NC(=O)[C@H](Cc1c[nH]c2ccccc12)NC(=O)[C@@H](N)Cc1c[nH]c2ccccc12)C(=O)N[C@@H](Cc1c[nH]c2ccccc12)C(N)=O [WW303, WWWRRRIW] (H-WWWRRRIW-NH2; N-terminus and C-terminus assumed) | >200 | 
9 | >25 |  | 12.5 (≈ 15.7 µg/mL) | 12.5 (≈ 15.7 µg/mL) |  | CC(C)C[C@H](NC(=O)[C@H](CC(C)C)NC(=O)[C@H](CCCCN)NC(=O)CNC(=O)[C@H](C)NC(=O)[C@H](C)NC(=O)[C@H](CCCCN)NC(=O)[C@H](CC(C)C)NC(=O)[C@H](C)NC(=O)[C@H](CO)NC(=O)[C@H](CC(C)C)NC(=O)[C@H](CC(C)C)NC(=O)CN)C(N)=O [DFT521, GLLSALKAAGKLL] (H-GLLSALKAAGKLL-NH2; N-terminus assumed) | >50 | MIC against S. aureus (S. aureus USA300; USA300): 12.5 to 25 µM
10 |  |  | 6.2 to 12.5 | 3.1 (≈ 3.95 µg/mL) | 12.5 (≈ 15.9 µg/mL) | CC[C@H](C)[C@H](NC(=O)[C@@H](N)CCCCN)C(=O)N[C@@H](Cc1c[nH]c2ccccc12)C(=O)N[C@@H](Cc1c[nH]c2ccccc12)C(=O)N[C@@H](Cc1c[nH]c2ccccc12)C(=O)N[C@@H](Cc1c[nH]c2ccccc12)C(=O)N[C@@H](CC(C)C)C(=O)N[C@@H](CCCNC(=N)N)C(=O)O [WW296, KIWWWWLR] (H-KIWWWWLR-OH; N-terminus and C-terminus assumed) |  | 
11 |  |  |  |  |  | CC(C)C[C@H](NC(=O)[C@H](CC(C)C)NC(=O)[C@H](CCCCN)NC(=O)CNC(=O)[C@H](CC(C)C)NC(=O)[C@H](CC(C)C)NC(=O)[C@H](CO)NC(=O)[C@H](CC(C)C)NC(=O)[C@H](CO)NC(=O)[C@H](CC(C)C)NC(=O)[C@H](CC(C)C)NC(=O)CN)C(N)=O [DFT523, GLLSL-SLLGKLL] (H-GLLSLSLLGKLL-NH2; N-terminus and C-terminus assumed) |  | MIC against E. coli (E. coli ATCC 25922): 12.5 to 25 µM; MIC E. coli ATCC 25922 (E. coli ATCC 25922; Table 3, quantified by UV): 25 µM (≈ 30.6 µg/mL); HL50 ([1]; Table 3, hRBCs 2% v/v): >50 µM; MIC against S. aureus (S. aureus USA300; Example 1): 12.5 to 25 µM; MIC S. aureus USA 300 (S. aureus USA300; Table 3, quantified by UV): 12.5 µM (≈ 15.3 µg/mL); MIC P. aeruginosa PAO1 (P. aeruginosa PAO1; Table 3, quantified by UV): >25 µM
12 |  |  | 12.5 (≈ 15.9 µg/mL) | 1.5 to 3.1 | 6.2 to 12.5 | CC[C@H](C)[C@H](NC(=O)[C@H](CCCCN)NC(=O)[C@H](CCCNC(=N)N)NC(=O)[C@H](CC(C)C)NC(=O)[C@H](Cc1c[nH]c2ccccc12)NC(=O)[C@H](Cc1c[nH]c2ccccc12)NC(=O)[C@H](Cc1c[nH]c2ccccc12)NC(=O)[C@@H](N)Cc1c[nH]c2ccccc12)C(=O)O [WW298, WWWWLRKI] (H-WWWWLRKI-OH; N-terminus and C-terminus assumed) |  | 
